What was measured:
[1] = molecular target: T1, CAAX prenyl protease 2 (Homo sapiens, UniProt Q9Y256); experiment: Inhibition of recombinant prenyl protein-specific protease Rce1 expressed in Sf9 cells […]
T1 sequence (Q9Y256 whole entry): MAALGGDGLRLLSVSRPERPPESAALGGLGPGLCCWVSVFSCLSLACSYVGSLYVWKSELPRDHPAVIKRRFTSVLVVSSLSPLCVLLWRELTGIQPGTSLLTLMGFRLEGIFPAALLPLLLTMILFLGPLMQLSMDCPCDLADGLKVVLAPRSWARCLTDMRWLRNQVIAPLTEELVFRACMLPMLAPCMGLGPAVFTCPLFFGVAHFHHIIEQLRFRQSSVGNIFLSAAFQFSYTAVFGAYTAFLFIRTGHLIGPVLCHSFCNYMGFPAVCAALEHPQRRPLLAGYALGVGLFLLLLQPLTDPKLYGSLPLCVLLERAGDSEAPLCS

[2] = molecular target: Protein farnesyltransferase (Homo sapiens, UniProt P49354+P49356); experiment: Inhibitory activity against Farnesyltransferase; assay type: protein-complex assay
[3] = molecular target: T2, CAAX prenyl protease 2 (Homo sapiens) (UniProt Q9Y256); experiment: Inhibition of recombinant prenyl protein-specific protease Rce1 in Sf9 cells at a concentration of 10 uM
T2 sequence (whole entry): T1 sequence (Q9Y256 whole entry)

[4] = molecular target: T1, CAAX prenyl protease 2; experiment: Inhibition of recombinant prenyl protein-specific protease Rcel expressed in Sf9 cells

Row | SMILES | inhibition [3] | other results
1 | CCCCCCCCCCCCCCCCC(=O)NCC(=O)Nc1cccc(S(=O)(=O)Nc2cccc(C)c2C)c1 | – | IC50 [1]: 7 µM; IC50 [2]: 3.5 µM
2 | CCCCC/C=C\C/C=C\CCCCCCCC(=O)NCCC(=O)Nc1cccc(S(=O)(=O)Nc2cccc(C)c2C)c1 | – | IC50 [2]: 3.8 µM; IC50 [4]: 14 µM
3 | CCCCCCCCCCCCCCCC(=O)NCCC(=O)Nc1cccc(S(=O)(=O)NCCc2c[nH]c3ccccc23)c1 | 23% | –
4 | CCCCCCCCCCCCCCCC(=O)NCCC(=O)Nc1ccc(C(=O)N[C@@H](CCSC)C(=O)OC)cc1 | 15% | –
5 | CCCCCCCCCCCCCCCC(=O)NCCC(=O)Nc1cccc(S(=O)(=O)Nc2cccc3ccccc23)c1 | < 5% | –
6 | CCCCCCCC/C=C\CCCCCCCC(=O)NCCC(=O)Nc1cccc(S(=O)(=O)Nc2cccc(C)c2C)c1 | < 5% | –
7 | Cc1cccc(NS(=O)(=O)c2cccc(NC(=O)CCNC(=O)/C=C/c3ccc(-c4ccccc4)cc3)c2)c1C | – | IC50 [1]: 7 µM; IC50 [2]: 3.4 µM
8 | CCCCCCCCCCCCCCCC(=O)NCCC(=O)Nc1ccc(S(=O)(=O)N[C@@H](CCSC)C(=O)OC)cc1 | 28% | –
9 | CCCCCCCCCCCCCCCC(=O)NCC(=O)Nc1ccc(C(=O)N[C@@H](CCSC)C(=O)OC)cc1 | 22% | –
10 | CCCCCCCCCCCCCCCC(=O)NCCC(=O)Nc1cccc(C(=O)Nc2cccc(C)c2C)c1 | 11% | –

Continued, in another order:

Row | inhibition [3] | SMILES | other results
11 | < 5% | CCCCCCCCCCCCCC(=O)NCCC(=O)Nc1cccc(S(=O)(=O)Nc2cccc(C)c2C)c1 | –
12 | 20% | CCCCCCCCCCCCCCCC(=O)NCCC(=O)Nc1cccc(S(=O)(=O)NCc2cccc3ccccc23)c1 | –
13 | 21% | CCCCCCCCCCCCCCC(=O)NCCCC(=O)Nc1cccc(S(=O)(=O)Nc2cccc(C)c2C)c1 | –
14 | < 5% | CCCCCCCCCCCCCCCCCC(=O)NCCC(=O)Nc1cccc(S(=O)(=O)Nc2cccc(C)c2C)c1 | IC50 [2]: 2.5 µM
15 | 22% | CCCCCCCCCCCCCCCC(=O)N(C)CCC(=O)Nc1cccc(S(=O)(=O)Nc2cccc(C)c2C)c1 | –
16 | 18% | CCCCCCCCCCCCCCCC(=O)NCCC(=O)Nc1cccc(S(=O)(=O)Nc2cccc(C)c2C)c1 | –

— ChEMBL document CHEMBL1134177, “Non-peptidic, non-prenylic inhibitors of the prenyl protein-specific protease Rce1” (Bioorg Med Chem Lett, 2001)
